Measured values as given in US4906661A, “Esters of aryloxypropanolamine derivatives” (E. I. Du Pont de Nemours and Company, priority 1989, dated 1990).

Columns and labels:
[1] = molecular target: β1 receptors, guinea pig right atria (Cavia porcellus, UniProt H0W3H1); assay: cell-based; conditions: Table IV; mean, n ≥ 2, range ≤ ± 0.2 units; read-out: pA2 Atria (converted)
Description: Each tissue was suspended between a fixed glass rod and a Statham Universal Transducer connected to a Beckman recorder. Atria were allowed to beat spontaneously under a loading tension of approximately 0.5 gm. Intrinsic depressant or stimulant activity was determined for each compound by progressively increasing concentrations in the tissue baths at 60-minute intervals. Tissues were not washed between increments. The maximum concentration showing little or no cardiodepressant activity was chosen for blockade experiments. Changes in rate in response to isoproterenol, a standard β-receptor agonist, were measured in the absence and presence of test compounds. Spiral strips of guinea pig trachea were suspended under 5 gm resting tension and incubated with phentolamine, tropolone and cocaine. Active tension was generated by addition of carbachol (3.0×10^-7 M) and decreases in tension in response to isoproterenol were quantitated. Cumulative concentration-response curves were produced with isoproterenol both before and after 60-minute incubation of test compounds with atria and trachea. […] The blocking potency of test compounds was estimated by computing pA2 values (-log KB) by the method of Furchgott, the Pharmacological Differentiation of Adrenergic Receptors, Ann. […] The degree of cardioselectivity was estimated from the ratio, KB trachea/KB atria (10^(pA2 atria-pA2 trachea)). A ratio greater than one indicates cardioselectivity. Test drugs were dissolved in distilled water and added to the bath (30 ml) in a volume of 10 or 100 μl.

[2] = molecular target: β2 receptors, guinea pig trachea (Cavia porcellus, UniProt Q8K4Z4); assay: cell-based; conditions: Table IV; mean, n ≥ 2, range ≤ ± 0.2 units; read-out: pA2 Trachea (converted)
Description: Each tissue was suspended between a fixed glass rod and a Statham Universal Transducer connected to a Beckman recorder. Atria were allowed to beat spontaneously under a loading tension of approximately 0.5 gm. Intrinsic depressant or stimulant activity was determined for each compound by progressively increasing concentrations in the tissue baths at 60-minute intervals. Tissues were not washed between increments. […] Changes in rate in response to isoproterenol, a standard β-receptor agonist, were measured in the absence and presence of test compounds. Spiral strips of guinea pig trachea were suspended under 5 gm resting tension and incubated with phentolamine, tropolone and cocaine. Active tension was generated by addition of carbachol (3.0×10^-7 M) and decreases in tension in response to isoproterenol were quantitated. Cumulative concentration-response curves were produced with isoproterenol both before and after 60-minute incubation of test compounds with atria and trachea. […] The blocking potency of test compounds was estimated by computing pA2 values (-log KB) by the method of Furchgott, the Pharmacological Differentiation of Adrenergic Receptors, Ann. […] A ratio greater than one indicates cardioselectivity. Test drugs were dissolved in distilled water and added to the bath (30 ml) in a volume of 10 or 100 μl.

[3] = Ocular toxicity noted in corneal anesthesia test; format: in vivo; conditions: Table IV footnote e

β2 receptors, guinea pig trachea, sequence (Q8K4Z4 whole entry): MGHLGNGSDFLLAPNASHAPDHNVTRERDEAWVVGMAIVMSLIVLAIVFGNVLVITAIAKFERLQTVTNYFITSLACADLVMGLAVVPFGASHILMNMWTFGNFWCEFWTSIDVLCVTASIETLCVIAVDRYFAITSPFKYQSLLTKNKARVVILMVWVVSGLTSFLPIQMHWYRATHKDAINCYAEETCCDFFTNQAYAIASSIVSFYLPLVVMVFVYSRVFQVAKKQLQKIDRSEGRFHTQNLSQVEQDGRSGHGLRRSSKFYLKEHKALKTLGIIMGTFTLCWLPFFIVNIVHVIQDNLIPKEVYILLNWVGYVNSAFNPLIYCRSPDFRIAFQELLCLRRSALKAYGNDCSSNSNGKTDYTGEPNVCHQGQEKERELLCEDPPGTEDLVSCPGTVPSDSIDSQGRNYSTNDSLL
β1 receptors, guinea pig right atria, sequence (H0W3H1 1-470): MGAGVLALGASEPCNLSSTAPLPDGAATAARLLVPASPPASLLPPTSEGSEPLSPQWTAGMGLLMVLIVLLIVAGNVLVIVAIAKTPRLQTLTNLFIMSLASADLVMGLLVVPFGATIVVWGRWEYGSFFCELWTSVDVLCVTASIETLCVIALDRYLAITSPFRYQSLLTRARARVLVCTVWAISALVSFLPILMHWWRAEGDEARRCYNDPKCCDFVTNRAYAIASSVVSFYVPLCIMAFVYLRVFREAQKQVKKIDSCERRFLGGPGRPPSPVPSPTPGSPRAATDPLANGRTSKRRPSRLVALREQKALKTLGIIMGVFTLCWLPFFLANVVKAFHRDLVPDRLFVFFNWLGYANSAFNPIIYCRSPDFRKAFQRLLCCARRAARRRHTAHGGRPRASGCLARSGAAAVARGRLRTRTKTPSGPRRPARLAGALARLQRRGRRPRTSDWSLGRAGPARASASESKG

With `CCOC(=O)CCc1ccccc1OCC(O)CNCCNS(=O)(=O)c1ccc(C)cc1` (stereo not drawn) [No. 8 (Table IV)] the Kb [1] was 794 nM, the Kb [2] was 126 nM and the ocular toxicity [3] was “extreme ocular toxicity”.
